Measurements as given in DBAASP.
≈ marks a conversion by molar mass, not a printed value.

Assays:
Assay in all cases: ≥ marks a high value that may be exact or a test limit, other limits are often not marked, values filed in µg/mL are converted to µM
[1] = system: Escherichia coli ATCC 25922
[2] = system: Pseudomonas aeruginosa 21328
[3] = system: Pseudomonas aeruginosa 25349
[4] = system: Pseudomonas aeruginosa ATCC 27853
[5] = system: Pseudomonas aeruginosa CICC 10419
[6] = system: Pseudomonas aeruginosa CICC 11411
[7] = system: Pseudomonas aeruginosa CICC 11421
[8] = system: Pseudomonas aeruginosa CICC 11431
[9] = system: Pseudomonas aeruginosa CICC 21625
[10] = system: Pseudomonas aeruginosa CICC 21630
[11] = system: Staphylococcus aureus ATCC 29213
[12] = system: Candida albicans ATCC 5314
[13] = system: Staphylococcus aureus ATCC 25923
Staphylococcus aureus MR = system: Staphylococcus aureus MR
[14] = system: Acinetobacter baumannii ATCC 17978D-5
[15] = system: Enterococcus faecium ATCC 700221
[16] = system: Klebsiella aerogenes ATCC 13048
[17] = system: Pseudomonas aeruginosa ATCC 19660
[18] = system: Staphylococcus aureus ATCC 33591
[19] = system: Staphylococcus epidermidis ATCC 51625
[20] = system: Streptococcus pneumoniae ATCC 49619
[21] = system: Alcaligenes faecalis ATCC 8750
Aspergillus niger = system: Aspergillus niger
[22] = system: Bacillus megaterium ATCC 10778
[23] = system: Bacillus subtilis ATCC 6633
Beauveria bassiana = system: Beauveria bassiana
Candida albicans MDM8 = system: Candida albicans MDM8
[24] = system: Candida tropicalis IOC 4560
[25] = system: Enterobacter cloacae beta-12
Escherichia coli D31 = system: Escherichia coli D31
Escherichia coli SBS 363 = system: Escherichia coli SBS 363
Micrococcus luteus A270 = system: Micrococcus luteus A270
[26] = system: Microsporum canis MW768151
Microsporum canis = system: Microsporum canis
Proteus mirabilis = system: Proteus mirabilis
[27] = system: Saccharomyces cerevisiae PM340
[28] = system: Salmonella enterica subsp. arizonae ATCC 13314
[29] = system: Salmonella enterica subsp. enterica serovar Typhimurium ATCC 14028
[30] = system: Serratia marcescens ATCC 4112
[31] = system: Staphylococcus cohnii MW767053
[32] = system: Staphylococcus haemolyticus
[33] = system: Staphylococcus pseudintermedius MW767056
[34] = system: Staphylococcus pseudintermedius
Staphylococcus sciuri = system: Staphylococcus sciuri
Staphylococcus simulans = system: Staphylococcus simulans
[35] = system: Trichophyton mentagrophytes
Escherichia coli MG1655 = system: Escherichia coli MG1655
[36] = system: Pseudomonas aeruginosa PA7
[37] = system: Pseudomonas aeruginosa PAO1
[38] = system: Staphylococcus aureus NCTC 8325

Structure (SMILES): NC(=O)[C@H](Cc1c[nH]c2ccccc12)NC(=O)[C@H](CCCN=C(N)N)NC(=O)[C@H](CCCN=C(N)N)NC(=O)[C@H](Cc1c[nH]c2ccccc12)NC(=O)[C@H](CCCN=C(N)N)NC(=O)[C@H](CCCN=C(N)N)NC(=O)[C@H](CCCN=C(N)N)NC(=O)[C@H](Cc1c[nH]c2ccccc12)NC(=O)[C@H](CCCN=C(N)N)NC(=O)[C@H](CCCN=C(N)N)NC(=O)[C@H](CCCN=C(N)N)NC(=O)[C@H](Cc1c[nH]c2ccccc12)NC(=O)[C@H](CCCN=C(N)N)NC(=O)[C@H](CCCN=C(N)N)NC(=O)[C@@H](N)Cc1c[nH]c2ccccc12 [WRRWRRRWRRRWRRW]
- MIC [1]: 12.7 µM (≈ 32 µg/mL)
- MIC [2]: ≥ 102 µM
- MIC [3]: 12.7 µM (≈ 32 µg/mL)
- MIC [4]: 1.59 µM (≈ 4 µg/mL)
- MIC [5]: ≥ 102 µM
- MIC [6]: ≥ 102 µM
- MIC [7]: ≥ 102 µM
- MIC [8]: 3.19 µM (≈ 8 µg/mL)
- MIC [9]: ≥ 102 µM
- MIC [10]: 6.37 µM (≈ 16 µg/mL)
- MIC [11]: 6.37 µM (≈ 16 µg/mL)

Structure (SMILES): CC[C@H](C)[C@H](NC(=O)[C@@H](NC(=O)[C@H](CCCN=C(N)N)NC(=O)[C@H](Cc1ccccc1)NC(=O)[C@@H](N)Cc1ccc(O)cc1)[C@@H](C)O)C(=O)N[C@@H](CCCN=C(N)N)C(=O)N[C@@H](CCCN=C(N)N)C(=O)N[C@@H](Cc1ccccc1)C(=O)N[C@@H](Cc1ccccc1)C(=O)N[C@@H](CCCCN)C(=O)N[C@@H](CCCCN)C(=O)N[C@@H](CC(C)C)C(=O)N[C@@H](Cc1ccccc1)C(=O)N[C@@H](CCCCN)C(=O)N[C@H](C(=O)N[C@@H](CC(C)C)C(=O)N[C@@H](CCCCN)C(=O)N[C@@H](CCCCN)C(N)=O)[C@@H](C)O [YFRTIRRFFKKLFKTLKK]
- MIC [12]: 26.4 µM (≈ 64 µg/mL)
- MIC [13]: 26.4 µM (≈ 64 µg/mL)
- MIC (Staphylococcus aureus MR): 26.4 µM (≈ 64 µg/mL)

Structure (SMILES): C[C@H](NC(=O)[C@H](Cc1ccccc1)NC(=O)[C@H](C)NC(=O)[C@@H](N)Cc1ccccc1)C(=O)N[C@@H](Cc1ccccc1)C(=O)N[C@@H](C)C(=O)N[C@@H](Cc1ccccc1)C(=O)N[C@@H](CCCCN)C(=O)N[C@@H](CCCCN)C(=O)N[C@@H](C)C(=O)N[C@@H](Cc1ccccc1)C(=O)N[C@@H](CCCCN)C(=O)N[C@@H](CCCCN)C(=O)N[C@@H](Cc1ccccc1)C(=O)N[C@@H](CCCCN)C(=O)N[C@@H](CCCCN)C(=O)N[C@@H](C)C(=O)N[C@@H](Cc1ccccc1)C(=O)N[C@@H](CCCCN)C(=O)N[C@@H](CCCCN)C(=O)N[C@@H](C)C(=O)N[C@@H](Cc1ccccc1)C(=O)O [FAFAFAFKKAFKKFKKAFKKAF]
- MIC [14]: 0.755 µM (≈ 2 µg/mL)
- MIC [15]: 3.02 µM (≈ 8 µg/mL)
- MIC [16]: 24.2 µM (≈ 64 µg/mL)
- MIC [17]: 24.2 µM (≈ 64 µg/mL)
- MIC [4]: > 24.2 µM
- MIC [18]: 6.04 µM (≈ 16 µg/mL)
- MIC [19]: 1.51 µM (≈ 4 µg/mL)
- MIC [20]: 24.2 µM (≈ 64 µg/mL)

Structure (SMILES): CC(C)[C@H](N)C(=O)N[C@@H](C)C(=O)N[C@@H](CCC(=O)O)C(=O)N[C@@H](C)C(=O)N[C@@H](CCCN=C(N)N)C(=O)N[C@@H](CCC(N)=O)C(=O)NCC(=O)N[C@@H](CO)C(=O)N[C@@H](Cc1ccccc1)C(=O)N[C@@H](CO)C(=O)N[C@@H](Cc1ccc(O)cc1)C(=O)O [VAEARQGSFSY]
- MIC [21]: 12.5 µM (≈ 15.2 µg/mL)
- MIC (Aspergillus niger): 25 µM (≈ 30.3 µg/mL)
- MIC [22]: 12.5 µM (≈ 15.2 µg/mL)
- MIC [23]: 25 µM (≈ 30.3 µg/mL)
- MIC (Beauveria bassiana): 25 µM (≈ 30.3 µg/mL)
- MIC (Candida albicans MDM8): 25 µM (≈ 30.3 µg/mL)
- MIC [24]: 25 µM (≈ 30.3 µg/mL)
- MIC [25]: 25 µM (≈ 30.3 µg/mL)
- MIC (Escherichia coli D31): 12.5 µM (≈ 15.2 µg/mL)
- MIC (Escherichia coli SBS 363): 25 µM (≈ 30.3 µg/mL)
- MIC (Micrococcus luteus A270): 6.24 µM (≈ 7.58 µg/mL)
- MIC [26]: 0.412 µM (≈ 0.5 µg/mL)
- MIC (Microsporum canis): 0.824 µM (≈ 1 µg/mL)
- MIC (Proteus mirabilis): ≥ 211 µM
- MIC [4]: 12.5 µM (≈ 15.2 µg/mL)
- MIC [27]: 25 µM (≈ 30.3 µg/mL)
- MIC [28]: 25 µM (≈ 30.3 µg/mL)
- MIC [29]: 12.5 µM (≈ 15.2 µg/mL)
- MIC [30]: 25 µM (≈ 30.3 µg/mL)
- MIC [11]: 6.24 µM (≈ 7.58 µg/mL)
- MIC [31]: ≥ 211 µM
- MIC [32]: ≥ 211 µM
- MIC [33]: ≥ 105 µM
- MIC [34]: ≥ 105 µM
- MIC (Staphylococcus sciuri): ≥ 211 µM
- MIC (Staphylococcus simulans): ≥ 105 µM
- MIC [35]: 0.412 µM (≈ 0.5 µg/mL)

Structure (SMILES): CC[C@H](C)[C@H](N)C(=O)N[C@@H](CCCCN)C(=O)N[C@H](C(=O)N1CCC[C@H]1C(=O)N[C@@H](C)C(=O)N[C@H](C(=O)N[C@H](C(=O)N[C@@H](CCCCN)C(=O)N[C@@H](CC(=O)O)C(=O)N[C@H](C(=O)N[C@@H](CCC(N)=O)C(=O)N[C@@H](CCCCN)C(=O)N[C@@H](CCCCN)C(=O)N[C@H](C(=O)N[C@@H](C)C(=O)N[C@@H](CCCCN)C(=O)NCC(=O)N[C@H](C(=O)N[C@H](C(=O)N[C@@H](CO)C(=O)N[C@H](C(=O)N[C@H](C(=O)N[C@@H](C)C(=O)N[C@@H](CC(=O)O)C(=O)N[C@@H](C)C(=O)N[C@@H](CC(C)C)C(=O)N[C@@H](CO)C(=O)N[C@@H](CCCCN)C(=O)N[C@@H](CO)C(=O)O)C(C)C)[C@@H](C)O)[C@@H](C)CC)C(C)C)C(C)C)[C@@H](C)O)C(C)C)[C@@H](C)CC)C(C)C [IKVPAIVKDTQKKVAKGVISTVADALSKS]
- MIC (Escherichia coli MG1655): ≥ 512 µM
- MIC [36]: ≥ 512 µM
- MIC [37]: > 512 µM
- MIC [38]: ≥ 512 µM
